# Patent publication US5932709A (University of Michigan, priority 1997, dated 1999)
# “Also recorded” adds a separate entry of the source. Structures can show the parent of a compound that is named as a salt.
# What was measured:
# [1] = tested on: P388/CPT CPT-resistant murine leukemia cells; assay: MTT growth inhibition, P388/CPT; format: cell-based; settings: Mus musculus, 72 h, 3 days, read-out: Growth Inhibitory Activity IC50
# Protocol: (§1) Camptothecin was used as a control to test the anti-cancer efficacy of the novel camptothecin analogs of the present invention.
# (§2) Murine B16 melanoma cell line was grown in RPMI 1640 medium supplemented with 10% heat-inactivated fetal bovine serum, 2 mM L-glutamine, 50 units/mL penicillin, 50 μg/mL streptomycin, 25 μg/mL gentamicin, 0.75% sodium bicarbonate 10 mM HEPES buffer (pH 7.4), and 0.06 mg/mL AntiPPLO. Murine P388 leukemic cell line and human HT-29 colon adenocarcinoma line were maintained in RPMI 1640 medium supplemented with 10% heat-inactivated fetal bovine serum. […] MCF-7M human breast adenocarcinoma was maintained in IMEM supplemented with 5% non heat-inactivated fetal bovine serum and 1 nM insulin.
# (§3) [See "Rapid Colorimetric Assay For Cellular Growth And Survival: Application To Proliferation And Cytotoxicity Assays," J. Immun. Meth. 65:55 (1983)]. The assay utilizes a tetrazolium salt to quantitatively measure mammalian cell survival and proliferation by colorimetric methods. In particular, MTT, a pale yellow compound with minimal absorbance, is incubated with cancerous cells in addition to (or in the absence of) a particular camptothecin analog. Living cells with active mitochondrial enzymes metabolize the MTT into a dark blue/purple formazan product with high absorbance. The exact procedure used to test the camptothecin analogs of the present invention is described below.
# (§4) Exponentially growing cells (1-2×10^3 cells, unless specified otherwise) in 0.1 mL medium were seeded on day 0 in a 96-well microtiter plate. On day 1, 0.1 mL aliquots of medium containing graded concentrations of test analogs were added to the cell plates. After incubation at 37° C. in a humidified incubator for 3 days (P388, P388/CPT, B16) or 6 days (HT-29, MCF-7M), the plates were centrifuged briefly and 100 μL of the growth medium was removed. Cell cultures were incubated with 50 μL of 3-(4,5-dimethylthiazol-2-yl)-2,5-diphenyl-tetrazolium bromide [MTT, 1 mg/mL in Dulbecco's phosphate buffered saline (PBS)] for 4 hr at 37° C. The resulting purple formazan precipitate was solubilized with 200 μL of 0.04 N HCl in isopropyl alcohol. Absorbance was monitored in a BioRad Model 3550 Microplate Reader at a test wavelength of 570 nm and a reference wavelength of 630 nm. The absorbance is transferred to a PC 486 computer. The IC50 values were determined by a computer program (EZ-ED50) that fits all of the data to the following four-parameter logistic equation:
# (§5) Y=(Amax -Amin)/(1+[X/IC^50 ])^n +Amin
# (§6) where Amax is the absorbance of control cells, Amin is the absorbance of cells in the presence of highest agent concentration, IC^50 is the concentration of agent that inhibits the cell growth by 50% of control cells (based on the absorbance) and n is the slope of the curve.
# [2] = cited from earlier work
# [3] = tested on: HT-29 human colon adenocarcinoma cells; assay: MTT growth inhibition, HT-29; format: cell-based; settings: 144 h, HT-29, MTT, 6 days, read-out: Growth Inhibitory Activity IC50
# Protocol: as §1, §2, §3, §4, §5, §6
# [4] = tested on: tumor growth; settings: in words; cited from earlier work
# [5] = tested on: MCF-7 human breast tumor cells; assay: MTT growth inhibition, MCF-7; format: cell-based; settings: MCF7, 144 h, MCF-7, MTT, 6 days, read-out: Growth Inhibitory Activity IC50
# Protocol: as §1, §2, §3, §4, §5, §6
# [6] = tested on: B16 murine melanoma cells; assay: MTT growth inhibition, B16; format: cell-based; settings: Mus musculus, 72 h, 3 days, read-out: Growth Inhibitory Activity IC50
# Protocol: as §1, §2, §3, §4, §5, §6
# [7] = Water solubility in phosphate buffered saline (spectrophotometric assay); format: physicochemical; settings: aqueous buffer; water solubility; PBS pH 7.5, room temperature, 24 hr
# Protocol: Approximately 5 mg of test compound was suspended in 1 mL of PBS in a 1.5 mL cryovial. The suspensions were mixed continuously on a Thermolyne vari-mix at room temperature for 24 hr. The suspensions were then centrifuged at 14000×g for 2 minutes to separate the undissolved materials. The supernatant fluids were diluted appropriately with PBS and the ultraviolet spectrums were recorded on a Beckman 640 DU spectrophotometer. For comparison, a standard stock (2 mg/mL in DMSO) solution was prepared for each analog. The ultraviolet spectrum of a 20 of 40 μg/mL standard working solution was measured. The water solubility of each analog was calculated based on the following formula:
# Cunknown =Cstandard ×(Aunknown
# where Cunknown is the concentration of the unknown solution to be determined; Cstandard is the concentration of the standard working solution (either 20 or 40 μg/mL); Astandard is the absorbance at 350 nm of the standard working solution; DDilution is the appropriate dilution factor used so that the absorbance of the unknown working solution is within the dynamic range of the UV spectrophotometer (less than 2 absorbance units).
# [8] = tested on: P388 murine leukemia cells; assay: MTT growth inhibition, P388; format: cell-based; settings: Mus musculus, 72 h, 3 days, read-out: Growth Inhibitory Activity IC50
# Protocol: as §1, §2, §3, §4, §5, §6
# [9] = tested on: tumor cells; assay: MTT growth inhibition across tumor cell lines (P388, P388/CPT, B16, HT-29, MCF-7M); format: cell-based; settings: vs camptothecin
# Protocol: as §3
# as §4, with “equation: […]” for “equation:”
# [10] = biological target: T1, human placental topoisomerase I (Homo sapiens, UniProt P11387); assay: Inhibition of topoisomerase I catalytic activity (relaxation of supercoiled SV40 DNA); format: biochemical; settings: highest concentration tested (100 μg/mL), in words
# T1 construct: purchased TopoGen; host or cells: human placenta
# T1 sequence (P11387 1-765): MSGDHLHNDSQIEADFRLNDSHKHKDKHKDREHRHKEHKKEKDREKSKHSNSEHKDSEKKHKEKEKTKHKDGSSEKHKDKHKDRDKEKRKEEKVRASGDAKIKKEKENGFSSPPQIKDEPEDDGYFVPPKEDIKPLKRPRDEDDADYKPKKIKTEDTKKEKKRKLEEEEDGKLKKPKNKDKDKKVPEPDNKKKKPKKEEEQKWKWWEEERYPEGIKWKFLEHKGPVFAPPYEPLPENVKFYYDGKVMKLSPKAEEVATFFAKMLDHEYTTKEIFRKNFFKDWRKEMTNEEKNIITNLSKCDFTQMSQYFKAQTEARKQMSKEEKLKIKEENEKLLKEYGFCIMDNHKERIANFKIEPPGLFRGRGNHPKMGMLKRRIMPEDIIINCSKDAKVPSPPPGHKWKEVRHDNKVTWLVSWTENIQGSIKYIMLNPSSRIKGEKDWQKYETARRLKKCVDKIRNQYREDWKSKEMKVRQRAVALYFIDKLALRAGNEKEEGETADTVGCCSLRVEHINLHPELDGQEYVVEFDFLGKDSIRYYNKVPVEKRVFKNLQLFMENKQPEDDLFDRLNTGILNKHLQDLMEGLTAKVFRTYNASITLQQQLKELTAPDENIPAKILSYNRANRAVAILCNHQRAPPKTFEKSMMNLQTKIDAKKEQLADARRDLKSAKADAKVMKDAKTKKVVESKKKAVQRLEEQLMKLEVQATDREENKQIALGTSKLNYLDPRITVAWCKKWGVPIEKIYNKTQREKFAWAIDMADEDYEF
# Protocol: The topoisomerase I catalytic activity was measured by converting the supercoiled SV40 DNA (Form I) to the relaxed form (Form Io). All reactions were performed in 20 μL reaction buffer (Tris-HCl, 10 mM, pH 7.5; EDTA, 1 mM; NaCl, 100 mM) with 0.25 μg SV40 DNA, 0.5 unit of human placental topoisomerase I (TopoGen) and graded concentrations of the analog tested. The reaction mixtures were incubated at 37° C. for 30 minutes. […] Ten μL of the reaction mixture was loaded onto a 1% agarose gel prepared in TAE buffer containing 2 μg/mL chloroquine; and the electrophoresis was performed at 82 volt for 4.5 hr in the TAE buffer containing 2 μg/mL chloroquine. […] The gels were then stained with 0.5 μg/mL ethidium bromide solution for 30 min or longer (if chloroquine is present during the electrophoresis step), and destained with 5 changes of deionized water. […] The DNA bands (image) on the negative were densitometrically scanned with a Molecular Dynamic Personal Densitometer. The percent inhibition of Toposiomerase I activity is calculated based on the following equation:
# % Inhibition=(FSC(E+D) -FSC(E))/(FSC(C)
# where FSC(E+D) represents fraction of supercoiled DNA in the presence of enzyme and drug; FSC(E) represents fraction of supercoiled DNA in the presence of enzyme alone; FSC(C) represents fraction of supercoiled DNA in the untreated SV40 DNA; the IC50 value was estimated using the same four-parameter logistic equation described in the in vitro growth inhibition studies.
# [11] = tested on: carcinoma cells; settings: in words; hydrochloride; cited from earlier work
# [12] = tested on: topoisomerase I; settings: in words; hydrochloride; cited from earlier work
# [13] = as hydrochloride trihydrate; cited from earlier work
smiles,measurement,setting,value
"CC[C@@]1(O)C(=O)OCc2c1cc1n(c2=O)Cc2cc3ccccc3nc2-1 [camptothecin, reference compound]",IC50,[1],1.12 µg/mL
same,side effects in human clinical studies,"[2]; human, in vivo",vomiting and diarrhea to myelosuppression and hemorrhagic cystitis
same,IC50,[3],0.002 µg/mL
same,effectiveness against tumor growth in animal studies,[4],significant efficacy in animal tumor models
same,IC50,[5],0.001 µg/mL
same,IC50,[6],0.015 µg/mL
same,solubility at 24 h,[7],20 µg/mL
same,IC50,[8],0.01 µg/mL
CC[C@@]1(OC(C)=O)C(=O)OCc2c1cc1n(c2=O)Cc2cc3ccccc3nc2-1 [HAR3],reduction of growth inhibitory activity,[9],approximately 10 fold
same,topoisomerase I inhibition,[10],Neither the acetate (HAR3) nor the hexanoate (HAR2) inhibited the topoisomerase I activity
same,solubility at 24 h,[7],6.5 µg/mL
"CCCCCC(=O)O[C@]1(CC)C(=O)OCc2c1cc1n(c2=O)Cc2cc3ccccc3nc2-1 [HAR2, camptothecin 20-n-hexanoate]",reduction of growth inhibitory activity,[9],~100 fold
same,topoisomerase I inhibition,[10],Neither the acetate (HAR3) nor the hexanoate (HAR2) inhibited the topoisomerase I activity
same,solubility at 24 h,[7],2.9 µg/mL
CC[C@@](O)(C(=O)O)c1cc2n(c(=O)c1CO)Cc1cc3ccccc3nc1-2 [sodium salt of camptothecin],anti-cancer efficacy,"[2]; sodium salt vs unmodified camptothecin, clinical trials",much less than unmodified camptothecin
"CCc1c2c(nc3ccc(OC(=O)N4CCC(N5CCCCC5)CC4)cc13)-c1cc3c(c(=O)n1C2)COC(=O)[C@]3(O)CC [CPT-11, 7-ethyl-10-[4-(piperidino)-1-piperidino]carboxylcamptothecin hydrochloride]",effectiveness against tumor growth in animal studies,[4],significant in vivo preclinical activity
same,in vitro efficacy / activity,[11],negligible in vitro activity
same,inhibition of Topoisomerase I activity,[12],inability to inhibit Topoisomerase I activity; also recorded: lack of topoisomerase I inhibitory activity
same,water solubility,[13],32000 µg/mL
